Read-outs that look alike come from different tables or passages of the source.
Experiments:
Type in all cases: cell-based
[1] = test system: cardiac fibroblast RAT-iCell-C002; assay: Anti-fibrosis activity test: inhibition of proliferation of cardiac fibroblast RAT-iCell-C002 (CCK-8); settings: Cardiac fibroblast, 48 h
Procedure, shortened: (§1)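 A CCK-8 proliferation assay was run: cells at 2×10^4 cells/mL, adherent for 24 h, then incubated 48 h at 37° C with compound dilutions. A450 was recorded 2 h after CCK-8 addition and converted to percent inhibition versus blank for IC50 determination.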

[2] = test system: human lung fibroblasts HFL1; assay: Anti-fibrosis activity test: inhibition of proliferation of human lung fibroblasts HFL1 (CCK-8); settings: Homo sapiens, HFL1, 48 h
Procedure, shortened: as §1

[3] = test system: human embryonic lung fibroblast IMR-90; assay: Anti-fibrosis activity test: inhibition of proliferation of human embryonic lung fibroblast IMR-90 (CCK-8)
Procedure, shortened: as §1

BHK-21 cells = assay: Anti-fibrosis activity test: inhibition of BHK-21 cell proliferation (CCK-8); settings: Mesocricetus auratus, BHK-21, 48 h
Procedure, shortened: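 Proliferation of BHK-21 cells is measured by CCK-8 at 450 nm following 48 h compound exposure at several concentrations. Inhibition is expressed relative to blank control and IC50 is computed from it.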

[4] = test system: human fibrosarcoma cells HT-1080; assay: Anti-fibrosis activity test: inhibition of proliferation of human fibrosarcoma cells HT-1080 (CCK-8)
Procedure, shortened: as §1

[5] = test system: human hepatic stellate cells LX-2; assay: Anti-fibrosis activity test: inhibition of proliferation of human hepatic stellate cells LX-2 (CCK-8); settings: Homo sapiens, 48 h
Procedure, shortened: as §1

[6] = test system: human dermal fibroblasts CCC-ESF-1; assay: Anti-fibrosis activity test: inhibition of proliferation of human dermal fibroblasts CCC-ESF-1 (CCK-8); settings: Fibroblast
Procedure, shortened: as §1

[7] = test system: mouse macrophages (RAW264.7); assay: Lipopolysaccharide-induced NO secretion in macrophages (Griess); settings: RAW264.7, LPS 1 μg/ml, a/b isomers given as first/second symbol, read-out: IC50 (μM), inhibition of lipopolysaccharide-induced NO secretion in macrophages
Procedure, shortened: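 Absorbance at 548 nm after Griess reagent addition to culture supernatant gave NO content; inhibition rate was derived relative to blank control. Cells were mouse RAW264.7 macrophages exposed to compounds and 1 μg/ml LPS for 24 hours.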

[8] = Homo sapiens, IMR-90 cells, 48 h, CCK-8
[9] = Homo sapiens, HT-1080, 48 h, HT-1080 cells, 48 h, CCK-8
[10] = Homo sapiens, CCC-ESF-1 cells, 48 h, CCK-8
[11] = cardiac fibroblast RAT-iCell-C002, CCK-8, 48 hours
[12] = human lung fibroblasts HFL1, CCK-8, 48 hours
[13] = human embryonic lung fibroblast IMR-90, CCK-8, 48 hours
[14] = CCK-8, 48 hours after administration
[15] = Homo sapiens, HT-1080, 48 h, human fibrosarcoma cells HT-1080, CCK-8, 48 hours
[16] = human hepatic stellate cells LX-2, CCK-8, 48 hours
[17] = human dermal fibroblasts CCC-ESF-1, CCK-8, 48 hours

IC50 [4, 9] [mM] | IC50 ([7]; Mus musculus, RAW264.7, 24 h) [µM] | IC50 [4, 15] [mM] | IC50 ([4]; human fibrosarcoma cells HT-1080, CCK-8, 48 hours) [mM] | IC50 ([7]; 24 hours) [µM] | Structure (SMILES) | IC50 ([1]; RAT-iCell-C002 cells, CCK-8) [mM] | IC50 ([2]; HFL1 cells, 48 h, CCK-8) [mM] | IC50 [3, 8] [mM] | IC50 (BHK-21 cells; 48 h, CCK-8) [mM] | IC50 ([5]; LX-2, 48 h, LX-2 cells, CCK-8) [mM] | IC50 [6, 10] [mM] | IC50 [1, 11] [mM] | IC50 [2, 12] [mM] | IC50 [3, 13] [mM] | IC50 (BHK-21 cells; [14]) [mM] | IC50 [5, 16] [mM] | IC50 [6, 17] [mM]
0.05 to 5 | 1 to 10 | – | – | – | N#Cc1ccccc1-c1ccc(COc2c3c(nc4ccccc24)C(=O)n2cccc2-3)cc1 [Compound 795b, 4′-(((5-oxo-5H-pyrrolizino[2,1-b]quinolin-11-yl)oxy)methyl)-[1,1′-biphenyl]-2-carbonitrile] | 0.05 to 5 | 0.05 to 5 | 0.05 to 5 | 0.05 to 5 | 0.05 to 5 | 0.05 to 5 | – | – | – | – | – | –
– | 1 to 10 | 0.05 to 5 | – | – | O=C(O)Cn1c2c(c(=O)c3cc(F)ccc31)C(=O)n1cccc1-2 [Compound 153a, 2-(7-Fluoro-9,10-dioxo-9H-pyrrolizino[1,2-b]quinolin-4(10H)-yl)acetic acid] | – | – | – | – | – | – | 0.05 to 5 | 0.05 to 5 | 0.05 to 5 | < 0.05 | < 0.05 | 0.05 to 5
– | 1 to 10 | 5 to 20 | – | – | CC(C)n1c2c(c(=O)c3cc(F)ccc31)C(=O)n1cccc1-2 [Compound 108a, 7-Fluoro-4-isopropyl-9H-pyrrolizino[1,2-b]quinoline-9,10(4H)-dione] | – | – | – | – | – | – | 0.05 to 5 | 0.05 to 5 | 0.05 to 5 | 0.05 to 5 | 0.05 to 5 | 0.05 to 5
< 0.05 | 1 to 10 | – | – | – | O=C1c2c(c(=O)c3ccccc3n2CCN2CCOCC2)-c2cccn21 [Compound 785a, 6-(2-Morpholinoethyl)-5H-pyrrolizino[2,1-b]quinoline-5,11(6H)-dione] | 0.05 to 5 | 0.05 to 5 | 0.05 to 5 | 0.05 to 5 | 0.05 to 5 | 0.05 to 5 | – | – | – | – | – | –
0.05 to 5 | 1 to 10 | – | – | – | Cc1ccc(C)c2c(=O)c3c([nH]c12)C(=O)n1cccc1-3 [Compound 783a, 7,10-Dimethyl-5H-pyrrolizino[2,1-b]quinoline-5,11(6H)-dione] | 0.05 to 5 | 0.05 to 5 | 0.05 to 5 | < 0.05 | 0.05 to 5 | 0.05 to 5 | – | – | – | – | – | –
– | – | – | 5 to 20 | 1 to 10 | O=C1c2c(nc3c(C(F)(F)F)c(N4CCNCC4)ccc3c2OCc2ccc(Cl)cc2)-c2cccn21 [Compound 483b, 9-((4-chlorobenzyl)oxy)-6-(piperazin-1-yl)-5-(trifluoromethyl)-10H-pyrrolizino[1,2-b]quinolin-10-one] | – | – | – | – | – | – | 0.05 to 5 | 0.05 to 5 | 0.05 to 5 | 0.05 to 5 | 0.05 to 5 | 0.05 to 5
– | 1 to 10 | 0.05 to 5 | – | – | N#Cc1ccc2nc3c(c(Oc4ccc(Cl)cc4)c2c1)C(=O)n1cccc1-3 [Compound 210b, 9-(4-chlorophenoxy)-10-oxo-10H-pyrrolizino[1,2-b]quinoline-7-carbonitrile] | – | – | – | – | – | – | 0.05 to 5 | 0.05 to 5 | 0.05 to 5 | 0.05 to 5 | 0.05 to 5 | 0.05 to 5
0.05 to 5 | 1 to 10 | – | – | – | O=C1c2nc3ccccc3c(OCCCN3CCCCC3)c2-c2cccn21 [Compound 786b, 11-(3-(piperidin-1-yl)propoxy)-5H-pyrrolizino[2,1-b]quinolin-5-one] | 0.05 to 5 | 0.05 to 5 | 0.05 to 5 | 0.05 to 5 | 0.05 to 5 | 0.05 to 5 | – | – | – | – | – | –
– | 1 to 10 | 0.05 to 5 | – | – | O=C1c2c(nc3cc(Cl)ccc3c2OCc2ccccc2F)-c2cccn21 [Compound 504b, 6-chloro-9-((2-fluorobenzyl)oxy)-10H-pyrrolizino[1,2-b]quinolin-10-one] | – | – | – | – | – | – | 0.05 to 5 | 0.05 to 5 | 0.05 to 5 | 0.05 to 5 | 0.05 to 5 | 0.05 to 5
0.05 to 5 | 10 to 50 | – | – | – | Cc1cc2[nH]c3c(c(=O)c2cc1C)-c1cccn1C3=O [Compound 781a, 8,9-Dimethyl-5H-pyrrolizino[2,1-b]quinoline-5,11(6H)-dione] | 0.05 to 5 | 0.05 to 5 | 0.05 to 5 | 0.05 to 5 | 0.05 to 5 | 0.05 to 5 | – | – | – | – | – | –
– | 0.1 to 1 | 0.05 to 5 | – | – | N#Cc1cccc2c(=O)c3c(n(Cc4cccc(F)c4)c12)-c1cccn1C3=O [Compound 454a, 4-(3-Fluorobenzyl)-9,10-dioxo-4,10-dihydro-9H-pyrrolizino[1,2-b]quinoline-5-carbonitrile] | – | – | – | – | – | – | 0.05 to 5 | 0.05 to 5 | 0.05 to 5 | 0.05 to 5 | 0.05 to 5 | 0.05 to 5
0.05 to 5 | 0.1 to 1 | – | – | – | O=C1c2nc3ccccc3c(OCCN3CCNCC3)c2-c2cccn21 [Compound 792b, 11-(2-(piperazin-1-yl)ethoxy)-5H-pyrrolizino[2,1-b]quinolin-5-one] | 0.05 to 5 | 0.05 to 5 | 0.05 to 5 | 0.05 to 5 | 0.05 to 5 | < 0.05 | – | – | – | – | – | –
– | 1 to 10 | 0.05 to 5 | – | – | O=C1c2c(nc3cc(F)ccc3c2OCc2cccc(F)c2)-c2cccn21 [Compound 491b, 6-fluoro-9-((3-fluorobenzyl)oxy)-10H-pyrrolizino[1,2-b]quinolin-10-one] | – | – | – | – | – | – | 0.05 to 5 | 0.05 to 5 | 0.05 to 5 | 0.05 to 5 | 0.05 to 5 | 0.05 to 5
– | 1 to 10 | 0.05 to 5 | – | – | CCn1c2c(c(=O)c3cc(F)ccc31)C(=O)n1cccc1-2 [Compound 104a, 4-Ethyl-7-fluoro-9H-pyrrolizino[1,2-b]quinoline-9,10(4H)-dione] | – | – | – | – | – | – | 0.05 to 5 | 0.05 to 5 | 0.05 to 5 | < 0.05 | 0.05 to 5 | 0.05 to 5
0.05 to 5 | 10 to 50 | – | – | – | O=C1c2c(c(=O)c3ccccc3n2CCN2CCCCC2)-c2cccn21 [Compound 784a, 6-(2-(Piperidin-1-yl)ethyl)-5H-pyrrolizino[2,1-b]quinoline-5,11(6H)-dione] | 0.05 to 5 | 0.05 to 5 | 0.05 to 5 | < 0.05 | 0.05 to 5 | 0.05 to 5 | – | – | – | – | – | –
0.05 to 5 | 1 to 10 | – | – | – | O=C1c2c(c(=O)c3ccccc3n2CCCCN2CCOCC2)-c2cccn21 [Compound 789a, 6-(4-Morpholinobutyl)-5H-pyrrolizino[2,1-b]quinoline-5,11(6H)-dione] | 0.05 to 5 | 0.05 to 5 | 0.05 to 5 | 0.05 to 5 | 0.05 to 5 | 0.05 to 5 | – | – | – | – | – | –
– | 10 to 50 | 0.05 to 5 | – | – | O=C1c2c(nc3c(Cl)cccc3c2OCc2ccccc2F)-c2cccn21 [Compound 460b, 5-chloro-9-((2-fluorobenzyl)oxy)-10H-pyrrolizino[1,2-b]quinolin-10-one] | – | – | – | – | – | – | 0.05 to 5 | 0.05 to 5 | 0.05 to 5 | 0.05 to 5 | 0.05 to 5 | 0.05 to 5
– | 1 to 10 | 0.05 to 5 | – | – | N#Cc1cccc2c(OCc3ccc(F)cc3)c3c(nc12)-c1cccn1C3=O [Compound 449b, 9-((4-fluorobenzyl)oxy)-10-oxo-10H-pyrrolizino[1,2-b]quinoline-5-carbonitrile] | – | – | – | – | – | – | 0.05 to 5 | 0.05 to 5 | 0.05 to 5 | 0.05 to 5 | 0.05 to 5 | 0.05 to 5
– | – | 0.05 to 5 | – | 10 to 50 | O=C1c2c(n(Cc3ccc(Cl)cc3)c3c(C(F)(F)F)c(N4CCNCC4)ccc3c2=O)-c2cccn21 [Compound 483a, 4-(4-Chlorobenzyl)-6-(piperazin-1-yl)-5-(trifluoromethyl)-9H-pyrrolizino[1,2-b]quinoline-9,10(4H)-dione] | – | – | – | – | – | – | 0.05 to 5 | 0.05 to 5 | 0.05 to 5 | < 0.05 | 0.05 to 5 | 0.05 to 5
– | 1 to 10 | 0.05 to 5 | – | – | O=C1c2c(nc3c(Cl)cccc3c2OCc2ccc(Cl)cc2)-c2cccn21 [Compound 451b, 5-chloro-9-((4-chlorobenzyl)oxy)-10H-pyrrolizino[1,2-b]quinolin-10-one] | – | – | – | – | – | – | 0.05 to 5 | < 0.05 | 0.05 to 5 | 0.05 to 5 | 0.05 to 5 | 0.05 to 5

From US11040028B2, “Penicinotam derivative, preparation method and use thereof” (OCEAN UNIVERSITY OF CHINA, priority 2017, dated 2021)
